# Source: ChEMBL document CHEMBL3758126, “Synthesis of 4-sulfamoylphenyl-benzylamine derivatives with inhibitory activity against human carbonic anhydrase isoforms I, II, IX and XII” (Bioorg Med Chem, 2016)
# Tests used:
# Carbonic anhydrase 9 = Carbonic anhydrase 9 (Homo sapiens, UniProt Q16790)
# Description: Inhibition of human recombinant carbonic anhydrase 9 preincubated for 15 mins by stopped-flow CO2 hydrase assay
# Carbonic anhydrase 1 = Carbonic anhydrase 1 (Homo sapiens, UniProt P00915)
# Description: Inhibition of human recombinant carbonic anhydrase 1 preincubated for 15 mins by stopped-flow CO2 hydrase assay
# Carbonic anhydrase 12 = Carbonic anhydrase 12 (Homo sapiens, UniProt O43570)
# Sequence of Carbonic anhydrase 12 (O43570 whole entry): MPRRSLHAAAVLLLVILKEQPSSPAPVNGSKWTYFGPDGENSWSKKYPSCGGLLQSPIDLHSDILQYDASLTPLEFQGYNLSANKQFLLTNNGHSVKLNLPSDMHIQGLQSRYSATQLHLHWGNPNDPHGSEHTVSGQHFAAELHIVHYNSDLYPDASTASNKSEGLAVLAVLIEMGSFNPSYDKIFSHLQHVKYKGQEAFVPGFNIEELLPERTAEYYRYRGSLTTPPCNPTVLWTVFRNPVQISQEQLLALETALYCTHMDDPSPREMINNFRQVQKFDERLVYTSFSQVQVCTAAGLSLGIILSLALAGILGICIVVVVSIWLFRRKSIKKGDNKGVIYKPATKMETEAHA
# Description: Inhibition of human recombinant carbonic anhydrase 12 preincubated for 15 mins by stopped-flow CO2 hydrase assay
# Sequence of Carbonic anhydrase 1 (P00915 whole entry): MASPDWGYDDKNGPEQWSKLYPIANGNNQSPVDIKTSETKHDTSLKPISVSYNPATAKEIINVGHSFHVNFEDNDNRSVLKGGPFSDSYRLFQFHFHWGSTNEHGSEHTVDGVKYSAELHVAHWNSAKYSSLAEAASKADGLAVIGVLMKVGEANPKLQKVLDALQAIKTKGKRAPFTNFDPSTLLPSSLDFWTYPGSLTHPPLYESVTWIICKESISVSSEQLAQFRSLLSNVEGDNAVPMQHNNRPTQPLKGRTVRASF
Ki (Carbonic anhydrase 9),Ki (Carbonic anhydrase 1),Ki (Carbonic anhydrase 12),Structure (SMILES)
0.0024 µM,–,–,NS(=O)(=O)c1ccc(NCc2cc(Cl)ccc2O)cc1
0.0415 µM,0.421 µM,0.0088 µM,CN(C)c1ccc(/C=N/c2ccc(S(N)(=O)=O)cc2)cc1
0.883 µM,> 50 µM,0.0112 µM,COc1ccc(/C=N/c2ccc(S(N)(=O)=O)cc2)cc1
0.0021 µM,–,–,Cc1ccc(CNc2ccc(S(N)(=O)=O)cc2)cc1
0.465 µM,–,–,Cc1cccc(/C=N/c2ccc(S(N)(=O)=O)cc2)c1O
0.0023 µM,–,–,Cc1cccc(CNc2ccc(S(N)(=O)=O)cc2)c1O
0.0022 µM,–,–,NS(=O)(=O)c1ccc(NCc2cc(Cl)cc(Cl)c2O)cc1
0.0029 µM,–,–,NS(=O)(=O)c1ccc(NCc2ccccc2O)cc1
0.036 µM,> 50 µM,–,NS(=O)(=O)c1ccc(/N=C/c2ccc(OCc3ccccc3)cc2)cc1
0.36 µM,> 50 µM,–,NS(=O)(=O)c1ccc(/N=C/c2cc(Br)cc(Br)c2O)cc1
0.0023 µM,–,–,NS(=O)(=O)c1ccc(NCc2cc(Br)cc(Br)c2O)cc1
0.0479 µM,> 50 µM,–,NS(=O)(=O)c1ccc(/N=C/c2cc(Cl)ccc2O)cc1
0.952 µM,–,–,NS(=O)(=O)c1ccc(/N=C/c2ccccc2O)cc1
0.454 µM,> 50 µM,0.0111 µM,NS(=O)(=O)c1ccc(/N=C/c2ccccc2)cc1
–,> 50 µM,0.0099 µM,Cc1ccc(/C=N/c2ccc(S(N)(=O)=O)cc2)cc1

Structure (SMILES),Ki (Carbonic anhydrase 9),Ki (Carbonic anhydrase 1),Ki (Carbonic anhydrase 12)
COc1ccc(CNc2ccc(S(N)(=O)=O)cc2)cc1,0.0022 µM,0.0219 µM,0.427 µM
NS(=O)(=O)c1ccc(/N=C/c2cc(Cl)cc(Cl)c2O)cc1,0.0356 µM,–,–
NS(=O)(=O)c1ccc(/N=C/c2cc(Br)ccc2O)cc1,0.257 µM,–,–
NS(=O)(=O)c1ccc(NCc2ccc(OCc3ccccc3)cc2)cc1,0.0025 µM,–,–
CN(C)c1ccc(CNc2ccc(S(N)(=O)=O)cc2)cc1,0.0024 µM,–,> 50 µM
